# Laboratory results published in US20160143877A1, “COMPOSITION FOR SUPPRESSING ADIPOCYTE DIFFERENTIATION, FOR REDUCING FAT ACCUMULATION AND/OR FOR PROMOTING ADIPONECTIN SECRETION AND USAGE FOR SAID COMPOSITION” (PUBLIC UNIVERSITY CORPORATION OSAKA CITY UNIVERSITY, priority 2013, published 2016).
# Legend:
# [1] = system: various cell lines used in Examples; experiment: Toxicity and viability check of the sesaminol solution on the cell lines used; type: cell-based; conditions: sesaminol solution (3.0 mg/ml in DMSO) as used in Examples
# Experimental: The highly concentrated sesaminol solution was dissolved in dimethyl sulphoxide (DMSO) to prepare a sesaminol solution (3.0 mg/ml) to be used in Examples.
# [2] = system: 3T3-L1 cells; experiment: Adipocyte differentiation: TG accumulation by Oil red 0 staining, sesaminol added during differentiation induction; type: cell-based, Mouse; conditions: read after Day 8
# Experimental: Preadipocytes, when differentiated into adipocytes, intracellularly accumulate lipid droplets containing TG and the like. In the present Example, sesaminol was added to preadipocyte during induction of differentiation and intracellular TG after completion of induction was stained with an azo dye, Oil red 0, to evaluate an effect of sesaminol on adipocyte differentiation. Mouse fibroblast cell line 3T3-L1 (Japan Health Sciences Foundation) were used as preadipocytes. 3T3-L1 cells were inoculated at a concentration of 1.0×10^5 to 1.0×10^6 cells/ml and cultured until they reached 80 to 90% confluence in a 5% CO2 incubator at 37° C. The culture medium used was Dulbecco's modified Eagle's medium (DMEM: Nissui Pharmaceutical Co., Ltd.) containing 10% fetal bovine serum (FBS: Nichirei Biosciences, Inc.), penicillin (50 units/ml, Meiji Co., Ltd.) and streptomycin ([…], Meiji Co., Ltd.). […] After washing, cells were analysed under a microscope (OLYMPUS IX-70: Olympus Corporation) and photographed.
# [3] = system: 3T3-L1 cells; experiment: Adipocyte differentiation: glycerol-3-phosphate dehydrogenase (GPDH) activity of cells after differentiation induction; type: cell-based, Mouse; conditions: sesaminol 0.5 or 1.0 μg/ml during differentiation induction; ** p<0.01 vs control
# Experimental: GPDH is a rate-limiting enzyme of triacylglycerol (TG; also referred to as triglyceride) synthesis in adipocytes. […] Thus GPDH activity of cells after differentiation induction was measured according to the method of Wise and Green (Wise, L. S. and Green, H., (1979) Participation of one isozyme of cytosolic glycerophosphate dehydrogenase in the adipose conversion of 3T3 cells. The Journal of Biological Chemistry, 254, 273-275). Cells used for the GPDH assay were obtained in the same manner as described in (1-1) and (1-2). As a control, cells were differentiated without addition of the sesaminol solution.
# Adipocytes derived from 3T3-L1 cells on or after Day 8 of induction were washed twice with PBS. Cells were added with a buffer for enzymatic extraction (100 mM triethanolamine, 2.5 mM EDTA) (300 μl) and collected using a cell scraper. […]
# To a test tube containing the buffer for enzymatic extraction (2800 μl) which was maintained at 28° C. in a water bath, 2-mercaptoethanol (final concentration: 0.1 mM), NADH (final concentration: 0.12 mM), dihydroxyacetone phosphate (DHAP: SIGMA) (final concentration: 0.2 mM) and a measurement sample (50 μl) were added and the absorbance was measured over 3 minutes at 340 nm. GPDH activity was calculated using an extinction coefficient of NADH (6.22 mM^−1cm^−1) on the basis of the change of absorbance per minute (NADH variation). […]
# [4] = system: 3T3-L1 adipocytes; experiment: Fat (TG) accumulation in differentiated adipocytes, Oil red 0 staining and absorbance at 520 nm; type: cell-based, Mouse; conditions: sesaminol 0.5 or 1.0 μg/ml added to differentiated adipocytes, three days
# Experimental: In the same manner as in (1-1) in Example 1, preadipocyte 3T3-L1 cells were cultured until they reached 80 to 90% confluence. Then the medium was replaced with DMEM containing differentiation inducing agents which were bovine insulin (0.2 μM, Wako Pure Chemical Industries, Ltd.), dexamethasone (0.25 μM, Wako Pure Chemical Industries, Ltd.) and 3-isobutyl-1-methylxanthine (0.5 mM, Wako Pure Chemical Industries, Ltd.) (this is referred to as “Day 0 of differentiation induction”). After two days, the medium was replaced with DMEM containing only insulin (0.2 μM). Thereafter, the medium was replaced with fresh DMEM every two days and induction of differentiation was completed on Day 8 of differentiation induction to obtain adipocytes.
# To the obtained adipocytes, the sesaminol solution was added so as to obtain the final concentration of sesaminol of 0.5 or 1.0 μg/ml. As a control, cells were cultured without addition of the sesaminol solution. […] Cells were analysed under a microscope (OLYMPUS IX-70: Olympus Corporation) and photographed. […] After microscopic observation, cells were added with isopropanol (3 ml) to extract Oil red 0 staining solution and the resulting extract was measured for absorbance at 520 nm. According to the measured values, TG accumulations in cells were compared. […]
# [5] = system: 3T3-L1 adipocytes; experiment: Adiponectin expression level in adipocytes by SDS-PAGE and western blotting; type: cell-based, Mouse; conditions: sesaminol 0.5 or 1.0 μg/ml added to differentiated adipocytes, three days
# Experimental: Various physiologically active adipocytokines are secreted from adipocytes. Among these adipocytokines, adiponectin is known to improve insulin resistance and prevent atherosclerosis. In the present Example, the profile of adiponectin secretion after addition of sesaminol to adipocytes was analysed by SDS-PAGE and western blotting.
# In the same manner as in (1-1) in Example 1, preadipocyte 3T3-L1 cells were cultured until they reached 80 to 90% confluence. […]
# The sesaminol solution was added so as to obtain the final concentration of sesaminol of 0.5 or 1.0 μg/ml in adipocytes. […] An aliquot of the collected supernatant was subjected to protein quantification using Serva Blue G (Serva Electrophoresis GmbH) based on the absorbance at 595 nm in order to calculate the amount of sample applied to electrophoresis.
# Equal volumes of the supernatant containing cell lysate and a sample buffer were mixed to prepare a sample for electrophoresis. […] The membrane was then subjected to reaction in a DAB solution (3,3′-diaminobenzidine tetrahydrochloride (10 mg), distilled water (1 ml), 0.2 M PBS (50 ml) and 30% H2O2 (100 μl)), dried and then subjected to quantification of intensity of bands using Scion Image (free software: Scion). The ratio of the band intensity of adiponectin relative to the band intensity of β-actin was calculated for the samples.
smiles,measurement,setting,value
Oc1cc2c(cc1C1OCC3C(c4ccc5c(c4)OCO5)OCC13)OCO2 (stereo not shown) [sesaminol],toxicity to and effect on viability of cell lines,[1],not toxic to and did not affect viability
same,"cells that did not contain stained lipid droplets (Oil red 0, FIG. 1)","[2]; sesaminol 0.5 μg/ml added on Days 0, 2, 4 and 6 of differentiation induction",many cells
same,"cells that did not contain stained lipid droplets (Oil red 0, FIG. 1)","[2]; sesaminol 1.0 μg/ml added on Days 0, 2, 4 and 6 of differentiation induction",almost all the cells
same,"GPDH activity of cells after differentiation induction (FIG. 2, percent of control)",[3],decreased with an increase in the amount of sesaminol added
same,size of lipid droplets in adipocytes (FIG. 3),[4],tend to decrease the size compared to the control
same,"TG accumulation in adipocytes (FIG. 4, percent of control)",[4]; * p<0.05 vs control,decreased TG accumulation
same,"adiponectin expression level (band intensity ratio adiponectin/β-actin, control = 1, FIG. 5)",[5],significantly enhanced with an increase in the amount of sesaminol added
